Experiments:
Format in all cases: in vivo
Avena fatua [1] = test: Post-emergence herbicidal action against AVEFA; settings: for Post-emergence action against AVEFA in %: visual assessment about 3 weeks after treatment
How it was run: (§1)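 Weeds in sandy loam soil received a post-emergence spray at the one-leaf stage. Compounds were applied as WP or EC in water, 600 to 800 l/ha, with 0.2% wetting agent. Activity in % was judged visually after roughly 3 weeks against untreated plants.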

Polygonum convolvulus [2] = test: Pre-emergence herbicidal action against POLCO
How it was run: (§2)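 Visual rating at 3 weeks vs untreated pots; 0–100% scale, 100% = plants died. Treatment: aqueous WP/EC spray onto covering soil, 600–800 l/ha, 0.2% wetter, seeds in sandy loam.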

Alopecurus myosuroides [3] = test: Pre-emergence herbicidal action against ALOMY; settings: for Pre-emergence action against ALOMY: visual score after 3 weeks vs untreated controls
How it was run: as §2

Veronica persica [4] = test: Post-emergence herbicidal action against VERPE; settings: visual assessment about 3 weeks after treatment
How it was run: as §1

Echinochloa crus-galli [5] = test: Pre-emergence herbicidal action against ECHCG; settings: for Pre-emergence action against ECHCG: visual score after 3 weeks vs untreated controls
How it was run: as §2

Pharbitis purpurea [6] = test: Pre-emergence herbicidal action against PHBPU; settings: visual score after 3 weeks vs untreated controls
How it was run: as §2

Matricaria inodora [7] = test: Pre-emergence herbicidal action against MATIN; settings: for Pre-emergence action against MATIN: visual score after 3 weeks vs untreated controls
How it was run: as §2

Echinochloa crus-galli [8] = test: Post-emergence herbicidal action against ECHCG; settings: visual assessment about 3 weeks after treatment
How it was run: as §1

Avena fatua [9] = test: Pre-emergence herbicidal action against AVEFA; settings: for Pre-emergence action against AVEFA: visual score after 3 weeks vs untreated controls
How it was run: as §2

Lolium rigidum = test: Pre-emergence herbicidal action against LOLRI; settings: 80 g/ha
How it was run: as §2

Amaranthus retroflexus [10] = test: Pre-emergence herbicidal action against AMARE; settings: visual score after 3 weeks vs untreated controls
How it was run: as §2

Setaria viridis [11] = test: Pre-emergence herbicidal action against SETVI
How it was run: as §2

Amaranthus retroflexus [12] = test: Post-emergence herbicidal action against AMARE; settings: visual assessment about 3 weeks after treatment
How it was run: as §1

Veronica persica [13] = test: Pre-emergence herbicidal action against VERPE
How it was run: as §2

Abutilon theophrasti [14] = test: Pre-emergence herbicidal action against ABUTH; settings: for Pre-emergence action against ABUTH: visual score after 3 weeks vs untreated controls
How it was run: as §2

Polygonum convolvulus [15] = test: Post-emergence herbicidal action against POLCO; settings: visual assessment about 3 weeks after treatment
Description: Seeds of monocotyledonous and dicotyledonous weed and crop plants are laid out in sandy loam soil in wood-fiber pots, covered with soil and cultivated in a greenhouse under good growth conditions. 2 to 3 weeks after sowing, the test plants are treated at the one-leaf stage. The compounds of the invention, formulated in the form of wettable powders (WP) or as emulsion concentrates (EC), are then sprayed onto the green parts of the plants in the form of an aqueous suspension or emulsion at a water application rate equivalent to 600 to 800 l/ha, with addition of 0.2% wetting agent. After the test plants have been left to stand in the greenhouse under optimal growth conditions for about 3 weeks, the action of the preparations is assessed visually in comparison to untreated controls (herbicidal action in percent (%): 100% activity=the plants have died, 0% activity=like control plants). […] The tables below illustrate, in an illustrative manner, the post-emergence herbicidal action of the compounds of the invention, the herbicidal activity being stated in percent.

Matricaria inodora [16] = test: Post-emergence herbicidal action against MATIN; settings: for Post-emergence action against MATIN in %: visual assessment about 3 weeks after treatment
How it was run: as §1

Digitaria sanguinalis [17] = test: Post-emergence herbicidal action against DIGSA
How it was run: as §1

Viola tricolor [18] = test: Pre-emergence herbicidal action against VIOTR
How it was run: as §2

Alopecurus myosuroides [19] = test: Post-emergence herbicidal action against ALOMY
How it was run: as §1

Abutilon theophrasti [20] = test: Post-emergence herbicidal action against ABUTH
How it was run: as §1

Digitaria sanguinalis [21] = test: Pre-emergence herbicidal action against DIGSA
How it was run: as §2

Setaria viridis [22] = test: Post-emergence herbicidal action against SETVI; settings: for Post-emergence action against SETVI in %: visual assessment about 3 weeks after treatment
How it was run: as §1

Pharbitis purpurea [23] = test: Post-emergence herbicidal action against PHBPU; settings: for Post-emergence action against PHBPU in %: visual assessment about 3 weeks after treatment
How it was run: as §1

Viola tricolor [24] = test: Post-emergence herbicidal action against VIOTR
How it was run: as §1

Cyperus esculentus = test: Pre-emergence herbicidal action against CYPES; settings: 320 g/ha; visual score after 3 weeks vs untreated controls
How it was run: as §2

Stellaria media [25] = test: Pre-emergence herbicidal action against STEME
How it was run: as §2

Hordeum murinum = test: Pre-emergence herbicidal action against HORMU; settings: 320 g/ha; visual score after 3 weeks vs untreated controls
Source text: Seeds of monocotyledonous and dicotyledonous weed plants and crop plants are laid out in sandy loam soil in wood-fiber pots and covered with soil. The compounds of the invention, formulated in the form of wettable powders (WP) or as emulsion concentrates (EC), are then applied to the surface of the covering soil in the form of an aqueous suspension or emulsion at a water application rate equivalent to 600 to 800 l/ha, with addition of 0.2% wetting agent. After the treatment, the pots are placed in a greenhouse and kept under good growth conditions for the trial plants. The damage to the test plants is scored visually after a test period of 3 weeks by comparison with untreated controls (herbicidal activity in percent (%): 100% activity=the plants have died, 0% activity=like control plants). […] The tables below illustrate, in an illustrative manner, the post-emergence herbicidal action of the compounds of the invention, the herbicidal activity being stated in percent.

Stellaria media [26] = test: Post-emergence herbicidal action against STEME; settings: visual assessment about 3 weeks after treatment
How it was run: as §1

[27] = comparative experiment, 5 g a.i./ha
[28] = comparative experiment, pre-emergence, 20 g a.i./ha

CCn1nnnc1NC(=O)c1ccc(C(F)F)c(C(=O)N(C)C)c1Cl [Example 2-154]
80: Herbicidal action against AVEFA (Avena fatua [1]; [27]) | Herbicidal action against ALOMY (Alopecurus myosuroides [3]; [28]) | Herbicidal action against ECHCG (Echinochloa crus-galli [5]; [28]) | Herbicidal action against AVEFA (Avena fatua [9]; [28]) | Herbicidal action against MATIN (Matricaria inodora [16]; [27]) | Herbicidal action against VIOTR (Viola tricolor [24]; [27])
90: Herbicidal action against MATIN (Matricaria inodora [7]; [28]) | Herbicidal action against ALOMY (Alopecurus myosuroides [19]; [27]) | Herbicidal action against SETVI (Setaria viridis [22]; [27])
70: Herbicidal action against PHBPU (Pharbitis purpurea [23]; [27])
100%: Post-emergence action against AVEFA in % (Avena fatua [1]; 20 g/ha) | Pre-emergence action against ALOMY (Alopecurus myosuroides [3]; 80 g/ha) | Pre-emergence action against ECHCG (Echinochloa crus-galli [5]; 80 g/ha) | Pre-emergence action against MATIN (Matricaria inodora [7]; 80 g/ha) | Pre-emergence action against AVEFA (Avena fatua [9]; 80 g/ha) | Pre-emergence action against AMARE (Amaranthus retroflexus [10]; 20 g/ha) | Pre-emergence action against AMARE (Amaranthus retroflexus [10]; 80 g/ha) | Pre-emergence action against SETVI (Setaria viridis [11]; 20 g/ha) | Pre-emergence action against SETVI (Setaria viridis [11]; 80 g/ha) | Post-emergence action against AMARE in % (Amaranthus retroflexus [12]; 20 g/ha) | Pre-emergence action against ABUTH (Abutilon theophrasti [14]; 20 g/ha) | Pre-emergence action against ABUTH (Abutilon theophrasti [14]; 80 g/ha) | Pre-emergence action against VIOTR (Viola tricolor [18]; 80 g/ha) | Post-emergence action against ABUTH (Abutilon theophrasti [20]; 5 g/ha) | Post-emergence action against ABUTH (Abutilon theophrasti [20]; 20 g/ha) | Pre-emergence action against DIGSA (Digitaria sanguinalis [21]; 20 g/ha) | Pre-emergence action against DIGSA (Digitaria sanguinalis [21]; 80 g/ha) | Post-emergence action against SETVI in % (Setaria viridis [22]; 20 g/ha) | Post-emergence action against VIOTR in % (Viola tricolor [24]; 20 g/ha)
100: Herbicidal action against SETVI (Setaria viridis [11]; comparative experiment, 20 g a.i./ha) | Herbicidal action against ABUTH (Abutilon theophrasti [14]; [28])
90%: Post-emergence action against VERPE in % (Veronica persica [4]; 20 g/ha) | Pre-emergence action against MATIN (Matricaria inodora [7]; 20 g/ha) | Post-emergence action against ECHCG in % (Echinochloa crus-galli [8]; 20 g/ha) | Post-emergence action against AMARE in % (Amaranthus retroflexus [12]; 5 g/ha) | Pre-emergence action against VERPE (Veronica persica [13]; 80 g/ha) | Post-emergence action against POLCO in % (Polygonum convolvulus [15]; 20 g/ha) | Post-emergence action against MATIN in % (Matricaria inodora [16]; 20 g/ha) | Post-emergence action against DIGSA in % (Digitaria sanguinalis [17]; 5 g/ha) | Post-emergence action against DIGSA in % (Digitaria sanguinalis [17]; 20 g/ha) | Pre-emergence action against VIOTR (Viola tricolor [18]; 20 g/ha) | Post-emergence action against ALOMY (Alopecurus myosuroides [19]; 5 g/ha) | Post-emergence action against ALOMY (Alopecurus myosuroides [19]; 20 g/ha) | Post-emergence action against SETVI in % (Setaria viridis [22]; 5 g/ha) | Post-emergence action against VIOTR in % (Viola tricolor [24]; 5 g/ha)
80%: Post-emergence action against AVEFA in % (Avena fatua [1]; 5 g/ha) | Pre-emergence action against POLCO (Polygonum convolvulus [2]; 80 g/ha) | Pre-emergence action against ALOMY (Alopecurus myosuroides [3]; 20 g/ha) | Post-emergence action against VERPE in % (Veronica persica [4]; 5 g/ha) | Pre-emergence action against ECHCG (Echinochloa crus-galli [5]; 20 g/ha) | Pre-emergence action against PHBPU (Pharbitis purpurea [6]; 80 g/ha) | Post-emergence action against ECHCG in % (Echinochloa crus-galli [8]; 5 g/ha) | Pre-emergence action against AVEFA (Avena fatua [9]; 20 g/ha) | Pre-emergence action against LOLRI (Lolium rigidum) | Post-emergence action against MATIN in % (Matricaria inodora [16]; 5 g/ha) | Post-emergence action against PHBPU in % (Pharbitis purpurea [23]; 20 g/ha)

Cc1ccccc1N(C)C(=O)c1c(Cl)ccc(C(=O)Nc2nnnn2C)c1Cl [Example 1-399]
100%: Pre-emergence action against ALOMY (Alopecurus myosuroides [3]; 320 g/ha) | Pre-emergence action against ECHCG (Echinochloa crus-galli [5]; 80 g/ha) | Pre-emergence action against ECHCG (Echinochloa crus-galli [5]; 320 g/ha) | Pre-emergence action against STEME (Stellaria media [25]; 320 g/ha) | Pre-emergence action against MATIN (Matricaria inodora [7]; 320 g/ha) | Post-emergence action against ECHCG in % (Echinochloa crus-galli [8]; 80 g/ha) | Pre-emergence action against AMARE (Amaranthus retroflexus [10]; 80 g/ha) | Pre-emergence action against AMARE (Amaranthus retroflexus [10]; 320 g/ha) | Pre-emergence action against SETVI (Setaria viridis [11]; 320 g/ha) | Post-emergence action against AMARE in % (Amaranthus retroflexus [12]; 5 g/ha) | Post-emergence action against AMARE in % (Amaranthus retroflexus [12]; 20 g/ha) | Post-emergence action against AMARE in % (Amaranthus retroflexus [12]; 80 g/ha) | Post-emergence action against STEME in % (Stellaria media [26]; 80 g/ha) | Pre-emergence action against ABUTH (Abutilon theophrasti [14]; 80 g/ha) | Pre-emergence action against ABUTH (Abutilon theophrasti [14]; Dosage column 320 g/ha (heading prints 3200 g/ha)) | Post-emergence action against POLCO in % (Polygonum convolvulus [15]; 80 g/ha) | Pre-emergence action against VIOTR (Viola tricolor [18]; 80 g/ha) | Pre-emergence action against VIOTR (Viola tricolor [18]; 320 g/ha) | Post-emergence action against ABUTH (Abutilon theophrasti [20]; 20 g/ha) | Post-emergence action against ABUTH (Abutilon theophrasti [20]; 80 g/ha) | Post-emergence action against VIOTR in % (Viola tricolor [24]; 80 g/ha)
90%: Pre-emergence action against CYPES (Cyperus esculentus) | Pre-emergence action against POLCO (Polygonum convolvulus [2]; 320 g/ha) | Post-emergence action against VERPE in % (Veronica persica [4]; 80 g/ha) | Pre-emergence action against STEME (Stellaria media [25]; 20 g/ha) | Pre-emergence action against STEME (Stellaria media [25]; 80 g/ha) | Pre-emergence action against PHBPU (Pharbitis purpurea [6]; 320 g/ha) | Pre-emergence action against MATIN (Matricaria inodora [7]; 80 g/ha) | Pre-emergence action against HORMU (Hordeum murinum) | Pre-emergence action against AVEFA (Avena fatua [9]; 320 g/ha) | Pre-emergence action against AMARE (Amaranthus retroflexus [10]; 20 g/ha) | Post-emergence action against STEME in % (Stellaria media [26]; 20 g/ha) | Post-emergence action against MATIN in % (Matricaria inodora [16]; 20 g/ha) | Post-emergence action against MATIN in % (Matricaria inodora [16]; 80 g/ha) | Post-emergence action against PHBPU in % (Pharbitis purpurea [23]; 80 g/ha)
80%: Pre-emergence action against ALOMY (Alopecurus myosuroides [3]; 80 g/ha) | Post-emergence action against VERPE in % (Veronica persica [4]; 20 g/ha) | Post-emergence action against ECHCG in % (Echinochloa crus-galli [8]; 20 g/ha) | Post-emergence action against STEME in % (Stellaria media [26]; 5 g/ha) | Pre-emergence action against VERPE (Veronica persica [13]; 320 g/ha) | Post-emergence action against ABUTH (Abutilon theophrasti [20]; 5 g/ha)

Reference: US12599136B2, “Substituted isophthalic acid diamides and their use as herbicides” (Bayer Aktiengesellschaft, priority 2020, dated 2026)
